Substitutions are numbered along the chain they refer to.
Tests used:
[1] = system: NLRP3 inflammasome in BMDMs; test: NLRP3 inflammasome activation in LPS-primed BMDMs (ATP/Nigericin; ELISA, immunoblot); assay type: cell-based, mouse; details: DP 2.5, 5, 10 μM, supernatant
Description: Mouse bone marrow cells (isolated from the legs of mice) were cultured in DMEM supplemented with 20% FBS. BMDMs were generated by culturing mouse bone marrow cells in the presence of 20 ng/ml M-CSF-conditioned medium for 7 days. BMDMs were seeded in 6- or 48-well plates overnight in FBS-free DMEM. On day 2, after priming with ultrapure LPS (200 ng/ml) for 4 h, BMDMs (1 × 10^6 cells/ml) were further stimulated with ATP (4 mM) or nigericin (10 μM) for 45 min. Supernatants and cell lysates were collected for ELISA and immunoblot analyses.
The cytokines mouse IL-1β and TNF-α in supernatants from serum, cell culture, and tissue culture were assayed by ELISA kits (R&D Systems, Minneapolis, MN, USA) according to the manufacturer’s instructions.
(§1) Cells were lysed in NP-40 buffer containing a protease inhibitor cocktail (Roche, 11836153001) and a phosphatase inhibitor cocktail (Sigma-Aldrich, P5726). Protein concentrations were quantified using a BCA Protein Assay Kit (Beyotime, 5000T P0011). Equal amounts of protein were separated by SDS-PAGE and transferred onto nitrocellulose membranes. The membranes were then incubated with antibodies against CMPK2, NLRP3, ASC, pro-caspase-1, pro-IL-1β, GAPDH, caspase-1 and IL-1β, followed by incubation with the appropriate secondary HRP-conjugated antibodies and development with ECL.

[2] = target: CMPK2^Lys282 protein; test: MST binding to CMPK2 Lys282 mutant; parameters: species or system human; details: Lys282 mutated
Description: (§2) Human CMPK2 and K265, K282 and K320 mutated CMPK2 cDNA were cloned and inserted into the pTT5 vector, and the constructed plasmid was amplified by the DH5α strain. The C‐terminus of the cDNA was fused with a 6× His tag, and the N‐terminus was truncated by 22 amino acids (Figure 1B–F and Supporting Information Figure S5A,B). When the free‐style 293‐F cells reached the proper density, approximately 1 mg of expression plasmid was premixed with 3 mg polyethylenimine in UltraFectin medium and incubated prior to transfection. This mixture was then added to the appropriate amount of fresh cell culture medium, incubated for 30 min and collected after 48 h.
(§3) The MST assay is an emerging technique used to quantitatively elucidate binding. The binding parameter between CMPK2 and DP was measured using MST on a Monolith NT.115 system (Germany). CMPK2 was fluorescently labeled with the Monolith NT Protein Labeling Kit RED (L018, NanoTemper Technologies GmbH, Munich, Germany) according to the manufacturer’s instructions. The Monolith NT.115 system was used with Monolith NT.115 standard capillaries (M0-K022). MST assay buffer was used to dilute the labeled CMPK2 to 2 μM. […] The binding and dissociation constants (Kd) were evaluated and calculated using M0-Affinity analysis software version 2.1.3 (Nano Temper Technologies) for the ligand.

[3] = target: T1, CMPK2^Lys265 protein (Homo sapiens, UniProt Q5EBM0, K265A); test: MST binding to CMPK2 Lys265 mutant; details: Lys265 mutated
T1 construct: the N‐terminus was truncated by 22 amino acids; 6xHis (C); made in house; host or cells: FreeStyle 293-F cells (pTT5 vector)
T1 sequence (Q5EBM0 22-449 K265A): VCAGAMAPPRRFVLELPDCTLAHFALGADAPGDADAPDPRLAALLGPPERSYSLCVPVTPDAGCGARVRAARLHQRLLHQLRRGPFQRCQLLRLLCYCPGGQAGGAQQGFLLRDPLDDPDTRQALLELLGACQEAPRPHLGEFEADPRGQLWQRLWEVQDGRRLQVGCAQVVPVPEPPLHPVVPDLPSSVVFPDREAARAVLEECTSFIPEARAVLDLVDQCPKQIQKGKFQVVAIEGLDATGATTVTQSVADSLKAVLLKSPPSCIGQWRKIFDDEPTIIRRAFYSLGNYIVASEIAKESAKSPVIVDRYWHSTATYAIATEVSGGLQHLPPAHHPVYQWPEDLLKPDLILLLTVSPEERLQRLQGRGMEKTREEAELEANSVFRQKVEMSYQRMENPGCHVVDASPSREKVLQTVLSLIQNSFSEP
Description: as §2, §3

[4] = system: LPS-induced septic shock in C57BL/6 mice; test: LPS-induced septic shock model; assay type: in vivo, mouse
Description: Sepsis was induced by intraperitoneal injection of 8- to 12-week-old gender-matched wild-type mice with LPS (E. coli O111:B4, Sigma-Aldrich) at 20 mg per kg body weight. Mouse survival was monitored every 1 h after injection for a total of 72 h. In a separate experiment, mice were treated with the same dose of LPS, and immune sera were collected 6 h post injection. Then, the abdominal cavity was washed with PBS. The levels of IL-1β and TNF-α in serum and peritoneal lavage ﬂuid were determined by ELISA. Then, the livers, kidneys and lungs were immediately removed and washed in ice-cold PBS. They were fixed with 4% paraformaldehyde, which was used for hematoxylin-eosin (H&E), Masson staining and Sirius red staining.

[5] = system: CMPK2 expression in BMDMs; test: CMPK2 protein and mRNA expression in BMDMs; assay type: cell-based, mouse
Description: as §1

[6] = target: T2, CMPK2 (Homo sapiens, UniProt Q5EBM0); test: CMPK2 kinase activity assay (ADP-GLO); assay type: biochemical
T2 sequence (Q5EBM0 22-449): T1 sequence (Q5EBM0 22-449 K265A) with A244K
Description: The range of concentrations used to investigate the effect of small‐molecule ligands on CMPK2 activity was 0.1–150 μM. Each data point contains three biological replicates.
CMPK2 activity was measured by the ADP‐GLO kinase assay according to the guidelines specified in the manufacturer's instructions. In the activity assay, the amount of ADP formed in the CMPK2 reaction was equal to the ATP consumption and proportional to the increase in luminescence generated in the luciferase reaction, which is the experimental principle shown in Figure 1I.

[7] = myeloid tissue, western blot, DP 40 mg/kg
[8] = serum and peritoneal lavage fluid, DP 2 h pre-treatment, 6 h LPS

**Q.** `COc1c2ccc(-c3ccccc3)oc-2cc(=O)c1C` [compound 73, Dracohodin perochlorate] was tested. Which “lysis of p20 (caspase-1)” value ([1]; 12 h before or 1 h after LPS) did it give?
**A.** inhibited

**Q.** What about the “secretion of p17 (IL-1β)” value ([1]; 12 h before or 1 h after LPS) of the same compound?
**A.** inhibited

**Q.** And the “production of TNF-α” value [1]?
**A.** had no effect

**Q.** And the “binding (Kd by MST)” value [2]?
**A.** no binding

**Q.** And the “binding (Kd by MST)” value [3]?
**A.** no binding

**Q.** And the “blood pressure (hypotension)” value ([4]; BIOPAC System-MP160)?
**A.** could improve hypotension

**Q.** What about the heart rate ([4]; BIOPAC System-MP160) of the same compound?
**A.** no significant difference

**Q.** What about the blood pressure changes ([4]; BP-2010A instrument) of the same compound?
**A.** not captured significant differences

**Q.** What about the survival rate ([4]; DP 40 mg/kg given before or after sepsis outbreak) of the same compound?
**A.** significantly improved

**Q.** And the “survival (lethal inflammation)” value ([4]; DP 10, 20, 40 mg/kg 2 h before LPS 20 mg/kg i.p., 72 h)?
**A.** suppressed the lethal inflammation

**Q.** And the “LPS-induced inflammatory infiltration and fibrosis” value ([4]; liver, lung, kidney histopathology, DP 10, 20, 40 mg/kg)?
**A.** distinctly alleviated

**Q.** What about the “body weight, body temperature and heart rate” value ([4]; model group vs drug administration groups) of the same compound?
**A.** no significant difference

**Q.** What about the “CMPK2 expression in vivo” value [4, 7] of the same compound?
**A.** markedly blocked

**Q.** And the “activated caspase-1” value [4, 7]?
**A.** prevents the increase

**Q.** What about the IL-1β production [4, 8] of the same compound?
**A.** reduced

**Q.** What about the TNF-α production [4, 8] of the same compound?
**A.** did not affect

**Q.** And the “mRNA expression level of Cmpk2” value [5]?
**A.** decreased

**Q.** What about the “protein expression of CMPK2” value ([5]; DP 2.5, 5, 10 μM) of the same compound?
**A.** dose‐dependently inhibited

**Q.** And the CMPK2 activity ([6]; 1 mM DP)?
**A.** completely inhibited

**Q.** What about the IC50 ([6]; kinase activity assay, experimental triplicates, read-out: IC50 with respect to CMPK2) of the same compound?
**A.** 1.34 µM

**Q.** What about the inhibition at 10 µM ([6]; read-out: CMPK2 inhibition) of the same compound?
**A.** > 50%
